Columns and labels:
[1] = tested on: 4th stage larvae (L4) of Dirofilaria immitis; test: Dirofilaria immitis, L4 Stage (DiL4) In Vitro Assay; type: cell-based; settings: Dirofilaria immitis, 72 h, read-out: DiL4 Minimum Effective Dose (MED), approximately 72 hours incubation; L4 larvae assessed for survival or paralysis
[2] = tested on: third stage larvae of Haemonchus contortus; test: Haemonchus contortus L3 (HcL3) Assay; type: cell-based; settings: 96 h, read-out: HcL3 Minimum Effective Dose (MED)

For CC(C)C[C@H]1C(=O)O[C@H](Cc2ccc(C(C)(C)n3cc(OC(C)C)cn3)cc2)C(=O)N(C)[C@@H](CC(C)C)C(=O)O[C@H](C)C(=O)N(C)[C@@H](CC(C)C)C(=O)O[C@H](Cc2ccc(C(C)(C)n3cc(OC(C)C)cn3)cc2)C(=O)N(C)[C@@H](CC(C)C)C(=O)O[C@H](C)C(=O)N1C [Example 1c-10, (3S,6R,9S,12R,15S,18R,21S,24R)-3,9,15,21-tetraisobutyl-6,18-bis(4-(2-(4-isopropoxy-1H-pyrazol-1-yl)propan-2-yl)benzyl)-4,10,12,16,22,24-hexamethyl-1,7,13,19-tetraoxa-4,10,16,22-tetraazacyclotetracosan-2,5,8,11,14,17,20,23-octaone], the minimal effective concentration [1] was ≤ 0.0001 µM and the minimal effective concentration [2] was ≤ 1 µM.
With CC(C)C[C@H]1C(=O)O[C@H](Cc2ccc(Cn3cccn3)cc2)C(=O)N(C)[C@@H](CC(C)C)C(=O)O[C@H](C)C(=O)N(C)[C@@H](CC(C)C)C(=O)O[C@H](Cc2ccccc2)C(=O)N(C)[C@@H](CC(C)C)C(=O)O[C@H](C)C(=O)N1C [Example 2-1, (3S,6R,9S,12R,15S,18R,21S,24R)-6-benzyl-3,9,15,21-tetraisobutyl-4,10,12,16,22,24-hexamethyl-18-[[4-(pyrazol-1-ylmethyl)phenyl]methyl]-1,7,13,19-tetraoxa-4,10,16,22-tetrazacyclotetracosane-2,5,8,11,14,17,20,23-octaone] the minimal effective concentration [1] was 0.0001 to 0.001 µM and the minimal effective concentration [2] was 1 to 10 µM.
CC(C)C[C@H]1C(=O)O[C@H](Cc2ccc(Cn3ccnc3Br)cc2)C(=O)N(C)[C@@H](CC(C)C)C(=O)O[C@H](C)C(=O)N(C)[C@@H](CC(C)C)C(=O)O[C@H](Cc2ccc(Cn3ccnc3Br)cc2)C(=O)N(C)[C@@H](CC(C)C)C(=O)O[C@H](C)C(=O)N1C [Example 6-3, (3S,6R,9S,12R,15S,18R,21S,24R)-6,18-bis[[4-[(2-bromoimidazol-1-yl)methyl]phenyl]methyl]-3,9,15,21-tetraisobutyl-4,10,12,16,22,24-hexamethyl-1,7,13,19-tetraoxa-4,10,16,22-tetrazacyclotetracosane-2,5,8,11,14,17,20,23-octaone] was tested, and the minimal effective concentration [1] was ≤ 0.0001 µM and the minimal effective concentration [2] was 1 to 10 µM.
For CC(C)C[C@H]1C(=O)O[C@H](Cc2ccc(Cn3ccnc3Cl)cc2)C(=O)N(C)[C@@H](CC(C)C)C(=O)O[C@H](C)C(=O)N(C)[C@@H](CC(C)C)C(=O)O[C@H](Cc2ccc(Cn3ccnc3Cl)cc2)C(=O)N(C)[C@@H](CC(C)C)C(=O)O[C@H](C)C(=O)N1C [Example 6-9, (3S,6R,9S,12R,15S,18R,21S,24R)-6,18-bis(4-((2-chloro-1H-imidazol-1-yl)methyl)benzyl)-3,9,15,21-tetraisobutyl-4,10,12,16,22,24-hexamethyl-1,7,13,19-tetraoxa-4,10,16,22-tetraazacyclotetracosan-2,5,8,11,14,17,20,23-octaone], the minimal effective concentration [1] was ≤ 0.0001 µM and the minimal effective concentration [2] was 1 to 10 µM.
CC(C)C[C@H]1C(=O)O[C@H](Cc2ccc(Cn3ccnc3Cl)cc2)C(=O)N(C)[C@@H](CC(C)C)C(=O)O[C@H](C)C(=O)N(C)[C@@H](CC(C)C)C(=O)O[C@H](Cc2ccccc2)C(=O)N(C)[C@@H](CC(C)C)C(=O)O[C@H](C)C(=O)N1C [Example 8-9, (3S,6R,9S,12R,15S,18R,21S,24R)-6-benzyl-18-(4-((2-chloro-1H-imidazol-1-yl)methyl)benzyl)-3,9,15,21-tetraisobutyl-4,10,12,16,22,24-hexamethyl-1,7,13,19-tetraoxa-4,10,16,22-tetraazacyclotetracosan-2,5,8,11,14,17,20,23-octaone] showed a minimal effective concentration [1] of 0.0001 to 0.001 µM and a minimal effective concentration [2] of 1 to 10 µM.
With CC(C)C[C@H]1C(=O)O[C@H](Cc2ccc(Cn3c(C#N)ccc3C#N)cc2)C(=O)N(C)[C@@H](CC(C)C)C(=O)O[C@H](C)C(=O)N(C)[C@@H](CC(C)C)C(=O)O[C@H](Cc2ccc(Cn3c(C#N)ccc3C#N)cc2)C(=O)N(C)[C@@H](CC(C)C)C(=O)O[C@H](C)C(=O)N1C [Example 9-12, 1,1′-(((((2R,5S,8R,11S,14R,17S,20R,23S)-5,11,17,23-tetraisobutyl-4,8,10,16,20,22-hexamethyl-3,6,9,12,15,18,21,24-octaoxo-1,7,13,19-tetraoxa-4,10,16,22-tetraazacyclotetracosane-2,14-diyl)bis(methylene))bis(4,1-phenylene))bis(methylene))bis(1H-pyrrole-2,5-dicarbonitrile)] the minimal effective concentration [1] was ≤ 0.0001 µM and the minimal effective concentration [2] was ≤ 1 µM.
In the case of CC(C)C[C@H]1C(=O)O[C@H](Cc2ccc(Cn3cccc3C#N)cc2)C(=O)N(C)[C@@H](CC(C)C)C(=O)O[C@H](C)C(=O)N(C)[C@@H](CC(C)C)C(=O)O[C@H](Cc2ccc(Cn3cccc3C#N)cc2)C(=O)N(C)[C@@H](CC(C)C)C(=O)O[C@H](C)C(=O)N1C [Example 9-16, 1-[[4-[[(2R,5S,8R,11S,14R,17S,20R,23S)-14-[[4-[(2-cyanopyrrol-1-yl)methyl]phenyl]methyl]-5,11,17,23-tetraisobutyl-4,8,10,16,20,22-hexamethyl-3,6,9,12,15,18,21,24-octaoxo-1,7,13,19-tetraoxa-4,10,16,22-tetrazacyclotetracos-2-yl]methyl]phenyl]methyl]pyrrole-2-carbonitrile], the minimal effective concentration [1] is reported as ≤ 0.0001 µM and the minimal effective concentration [2] is reported as ≤ 1 µM.
CC(C)C[C@H]1C(=O)O[C@H](Cc2ccc(Cn3cccc3C(N)=O)cc2)C(=O)N(C)[C@@H](CC(C)C)C(=O)O[C@H](C)C(=O)N(C)[C@@H](CC(C)C)C(=O)O[C@H](Cc2ccc(Cn3cccc3C(N)=O)cc2)C(=O)N(C)[C@@H](CC(C)C)C(=O)O[C@H](C)C(=O)N1C [Example 9-32, 1-[[4-[[(2R,5S,8R,11 S,14R,17S,20R,23S)-14-[[4-[(2-carbamoylpyrrol-1-yl)methyl]phenyl]methyl]-5,11,17,23-tetraisobutyl-4,8,10,16,20,22-hexamethyl-3,6,9,12,15,18,21,24-octaoxo-1,7,13,19-tetraoxa-4,10,16,22-tetrazacyclotetracos-2-yl]methyl]phenyl]methyl]pyrrole-2-carboxamide] was tested, and the minimal effective concentration [1] was 0.0001 to 0.001 µM and the minimal effective concentration [2] was ≤ 1 µM.
Molecule CCc1ncnn1Cc1ccc(C[C@H]2OC(=O)[C@H](CC(C)C)N(C)C(=O)[C@@H](C)OC(=O)[C@H](CC(C)C)N(C)C(=O)[C@@H](Cc3ccc(Cn4ncnc4CC)cc3)OC(=O)[C@H](CC(C)C)N(C)C(=O)[C@@H](C)OC(=O)[C@H](CC(C)C)N(C)C2=O)cc1 [Example 9-50, (3S,6R,9S,12R,15S,18R,21S,24R)-6,18-bis(4-((5-ethyl-1H-1,2,4-triazol-1-yl)methyl)benzyl)-3,9,15,21-tetraisobutyl-4,10,12,16,22,24-hexamethyl-1,7,13,19-tetraoxa-4,10,16,22-tetraazacyclotetracosan-2,5,8,11,14,17,20,23-octaone] has a minimal effective concentration [1] of 0.001 to 0.01 µM and a minimal effective concentration [2] of 1 to 10 µM.
CC(C)C[C@H]1C(=O)O[C@H](Cc2ccc(Cn3ncnc3C3CCC3)cc2)C(=O)N(C)[C@@H](CC(C)C)C(=O)O[C@H](C)C(=O)N(C)[C@@H](CC(C)C)C(=O)O[C@H](Cc2ccc(Cn3ncnc3C3CCC3)cc2)C(=O)N(C)[C@@H](CC(C)C)C(=O)O[C@H](C)C(=O)N1C [Example 9-54, (3S,6R,9S,12R,15S,18R,21S,24R)-6,18-bis(4-((5-cyclobutyl-1H-1,2,4-triazol-1-yl)methyl)benzyl)-3,9,15,21-tetraisobutyl-4,10,12,16,22,24-hexamethyl-1,7,13,19-tetraoxa-4,10,16,22-tetraazacyclotetracosan-2,5,8,11,14,17,20,23-octaone] showed a minimal effective concentration [1] of 0.001 to 0.01 µM and a minimal effective concentration [2] of 1 to 10 µM.
In the case of CC(C)C[C@H]1C(=O)O[C@H](Cc2ccc(Cn3ncnc3CC3CC3)cc2)C(=O)N(C)[C@@H](CC(C)C)C(=O)O[C@H](C)C(=O)N(C)[C@@H](CC(C)C)C(=O)O[C@H](Cc2ccc(Cn3ncnc3CC3CC3)cc2)C(=O)N(C)[C@@H](CC(C)C)C(=O)O[C@H](C)C(=O)N1C [Example 9-55, (3S,6R,9S,12R,15S,18R,21S,24R)-6,18-bis(4-((5-(cyclopropylmethyl)-1H-1,2,4-triazol-1-yl)methyl)benzyl)-3,9,15,21-tetraisobutyl-4,10,12,16,22,24-hexamethyl-1,7,13,19-tetraoxa-4,10,16,22-tetraazacyclotetracosan-2,5,8,11,14,17,20,23-octaone], the minimal effective concentration [1] is reported as 0.0001 to 0.001 µM and the minimal effective concentration [2] is reported as ≤ 1 µM.
In the case of CC(C)C[C@H]1C(=O)O[C@H](Cc2ccc(Cn3cccc3C#N)cc2)C(=O)N(C)[C@@H](CC(C)C)C(=O)O[C@H](C)C(=O)N(C)[C@@H](CC(C)C)C(=O)O[C@H](Cc2ccccc2)C(=O)N(C)[C@@H](CC(C)C)C(=O)O[C@H](C)C(=O)N1C [Example 10-13, 1-[[4-[[(2R,5S,8R,11S,14R,17S,20R,23S)-14-benzyl-5,11,17,23-tetraisobutyl-4,8,10,16,20,22-hexamethyl-3,6,9,12,15,18,21,24-octaoxo-1,7,13,19-tetraoxa-4,10,16,22-tetrazacyclotetracos-2-yl]methyl]phenyl]methyl]pyrrole-2-carbonitrile], the minimal effective concentration [1] is reported as 0.0001 to 0.001 µM and the minimal effective concentration [2] is reported as 1 to 10 µM.
For CC(C)C[C@H]1C(=O)O[C@H](Cc2ccc(Cn3c(C#N)ccc3C#N)cc2)C(=O)N(C)[C@@H](CC(C)C)C(=O)O[C@H](C)C(=O)N(C)[C@@H](CC(C)C)C(=O)O[C@H](Cc2ccccc2)C(=O)N(C)[C@@H](CC(C)C)C(=O)O[C@H](C)C(=O)N1C [Example 10-31, 1-(4-(((2R,5S,8R,11S,14R,17S,20R,23S)-14-benzyl-5,11,17,23-tetraisobutyl-4,8,10,16,20,22-hexamethyl-3,6,9,12,15,18,21,24-octaoxo-1,7,13,19-tetraoxa-4,10,16,22-tetraazacyclotetracosan-2-yl)methyl)benzyl)-1H-pyrrole-2,5-dicarbonitrile], the minimal effective concentration [1] was ≤ 0.0001 µM and the minimal effective concentration [2] was 1 to 10 µM.
